Data set [1] can be described thus: Metabolite analysis in human serum (radio-HPLC, radio-TLC). The format is in vitro ADME. Particulars: 37°C up to 60 min, radio-HPLC and radio-TLC. The procedure:
Human serum (Sigma-Aldrich, St. Louis, MO, USA) was thawed. Serum (100 μL) was taken, diluted with saline to 10%, and incubated with HPLC-purified fraction of ^18F-7B (100 μCi each) at 37°C for 30 and 60 min. Samples were periodically withdrawn and analyzed on radio-HPLC using eluent mixture described above and radio-TLC using an eluent mixture of ethanol/saline in a ratio of 90:10 (to allow mobility of parental compound and other hydrophobic metabolites off the surface to analyze protein binding) and 10:90 (to analyze hydrophilic metabolites).

The nature of the next data set: Lipophilicity (log P). Type of data set: physicochemical. Conditions: octanol/water.
A further data set deals with Aβ plaques (Homo sapiens, UniProt P05067). As to the kind of experiment: MicroPET/CT imaging in APP/PS1 versus WT mice. The format is in vivo. The procedure: Following anesthesia, the mice were secured with their heads in the center of the field of view, fixed in the scanner in a prone head-first position (HFP), and placed in an acrylic-imaging tray. MicroPET imaging was performed using Inveon PET/CT scanner (Siemens Medical Solutions, Malvern, PA, USA) following intravenous tail-vein injection of HPLC-purified [^18F]7B (12.95 MBq; 28 μL; 35% ethanol in saline) employing the catheter system in a slow bolus, followed by flushing with isotonic saline solution. PET dynamic data acquisition was performed over 75 min starting immediately following injection of the tracer. The emission data were normalized and corrected for attenuation, scatter, and decay. Attenuation correction was obtained using the co-registered CT data. The image volume consisted of 256 × 256 × 159 voxels, with a size of 0.39 × 0.39 × 0.8 mm^3 per voxel for the Inveon scanner. For anatomical visualization, PET images were co-registered with CT images from an Inveon PET/CT scanner. For analysis, brain uptake (Bq/L) was normalized to injected dose and weight of animals. […] Additionally, SUV values in time-activity curves were normalized to the average activity measured in those regions between 1 to 2 min post-injection. All image data were processed and analyzed using Inveon Research Workspace 4.1 software (Siemens, Malvern, PA, USA). […]

In a further data set the target is T1, Aβ1-42 fibrils (Homo sapiens, UniProt P05067).
T1 construct: synthetic Aβ1-42 peptide (1 mg) (Bachem, Torrance, CA); purchased Bachem, Torrance, CA; host or cells: chemical synthesis
As to the kind of experiment: Saturation radioligand binding to preformed Aβ1-42 fibrils. Here is the method: Aβ1-42 fibrils were obtained using literature procedures described earlier. Briefly, synthetic Aβ1-42 peptide (1 mg) (Bachem, Torrance, CA) was initially dissolved in DMSO (50 μL) and diluted with the addition of mQ-H2O (925 μL). Finally, 1 M Tris-HCl (25 μL; pH 7.6) was added to the peptide solution to obtain a final peptide concentration (222 μM; 1 mg/mL). Thereafter, the peptide solution was incubated for 30 h at 37°C with shaking at 1,000 rpm in an Eppendorf Thermomixer. The fibril formation was confirmed by ThioT fluorescence. For determining the concentration of fibrils, the fibril reaction mix was centrifuged at 15,000×g for 15 min to separate the fibrils from the monomer. The concentration of Aβ monomer in the supernatant was determined in a BCA protein assay. […] The exact hot:cold (^18F-7B:7A) ratio was measured in each experiment by counting an aliquot of a sample (2 μL) of the radioligand preparation in a scintillation counter. Binding of ^18F-7B to human brain homogenates was assessed by incubating samples of insoluble fraction (5-μg insoluble protein/well) from AD subjects, with increasing concentrations of ^18F-7B (1.5 to 100 nM). Nonspecific binding was determined in parallel experiments utilizing 7A (2.5 μM) for Aβ1-42 fibrils and 7A (5 μM) for AD tissue as a competitor. […] Bmax values were calculated in pmol/gram wet weight of brain tissue.

Molecules are shown by their SMILES. pKd: −log10 of the molar value. “Also recorded” adds a separate entry of the source.

Chain of Aβ plaques (P05067 672-711 limits assumed): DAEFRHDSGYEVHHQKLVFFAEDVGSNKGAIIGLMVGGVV
T1 sequence (P05067 672-713 limits assumed): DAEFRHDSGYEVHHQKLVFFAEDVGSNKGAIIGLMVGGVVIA

For orientation: logP means a log measure of how a compound divides between an organic and an aqueous phase. A higher logP goes with a more lipophilic compound. The pKd is the negative decadic logarithm of the Kd, by convention in mol/L. As to `CN(C)c1ccc(/C=C/c2nc3ccc(OCC[18F])cc3s2)cn1` [^18F-7B, (E)-5-(2-(6-(2-[^18F]-fluoroethoxy)-benzo[d]thiazol-2-yl)vinyl)-N,N-dimethylpyridin-2-amine], the “stability in human serum” value in data set [1] is listed as “presence of parental species in human serum; also recorded: presence of primarily the parental compound”. The molecule further registered a logP in the data set “Lipophilicity (log P)” of 1.3. The “retention in brain/frontal cortex of transgenic mice compared with WT” value on Aβ plaques (APP/PS1 vs age-matched WT mice, 22.6 months, dynamic PET 1 to 75 min, i.v.) is “significantly higher retention”. In addition, the “retention in extracerebral regions” value at Aβ plaques (nasal and eye cavities, microPET/CT) was “considerable retention in extracerebral regions”. The Bmax on Aβ1-42 fibrils was found to be 6 pmol/nmol Aβ. The pKd at Aβ1-42 fibrils (one-site model) was 7.21.
